{
  "source": "PubChem BioAssay AID504746",
  "about": "(National Center for Advancing Translational Sciences (NCATS), 2011)",
  "test_system": "mouse liver microsomes + NADPH, LC-MS/MS % remaining",
  "assay": "Inhibitors of N370S glucocerebrosidase as a Potential Chaperone Treatment of Gaucher Disease: Metabolic Stability Profile with NADPH",
  "settings": "at 5 µM; higher = more stable (active)",
  "description": "Glucocerebrosidase (GC) catalyzes the hydrolysis of beta-glucocerebroside to glucose and ceramide in lysosomes. Mutations in the glucocerebrosidase gene result in Gaucher disease, an autosomal recessive lysosomal storage disorder. Many of the mutations encountered in patients with Gaucher disease are missense alterations that may cause misfolding, decreased stability and/or mistrafficking of this lysosomal protein. […] These inhibitors include iminosugar analogs and three non-iminosugar inhibitors identified from a previous HTS of 62,000 compounds with the wild type recombinant enzyme. After further testing a probe has been identified and was characterized though AMDE tests. Mouse liver microsomes are created through broken up endoplasmic reticulum from mouse liver. These liver microsomes contain many drug metabolizing enzymes, such as Cytochome P-450s and flavin-containing monooxygenases. […] NIH Chemical Genomics Center [NCGC] NIH Molecular Libraries Probe Production Centers Network [MLPCN] MLPCN Grant: MH086442-01 Assay Submitter (PI): Wei Zheng\n5uM of compound is incubated with mouse liver microsome in the presence of NADPH; the reference compounds are verapamil and warfarin. Compounds are incubated and samples are analyzed with LC-MS/MS.",
  "data": [
    {"smiles": "S=C(NCCCc1cnc[nH]1)NCCCN(Cc1ccc(Cl)c(Cl)c1)c1ccc(Br)cn1", "values": [
      {"measurement": "percent remaining", "value": 58, "unit": "%"}
    ]}
  ]
}
